The assay concerns Acinetobacter baumannii ATCC17961. The assay can be described thus: Antimicrobial susceptibility testing: 90% growth inhibitory concentration (IC90) determination in Iso-Sensitest broth, OD600 growth. The format is cell-based. The method, boiled down:
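Growth inhibition is calculated during the logarithmic phase from OD600 readings taken every 20 minutes across 16 h at 35±2° C. Bacteria at ~5×10^(5) CFU/ml face twofold dilution series (e.g. 50 to 0.097 μM final).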

[1] abbreviates: Acinetobacter baumannii, ATCC17961, 16 h, strain ATCC 17961, OD600 growth over 16 h, read-out: A. baumannii ATCC 17961 IC90.
[2] abbreviates: Acinetobacter baumannii, ATCC17961, 16 h, read-out: A. baumannii ATCC 17961 IC90 (uM), strain ATCC 17961, OD600 growth over 16 h.
The mark [3] stands for this setting: strain ATCC 17961, OD600 growth over 16 h, read-out: A. baumannii ATCC 17961 IC90.

18 compounds from patent US20230203043A1, “NOVEL IMIDAZOPYRAZINE DERIVATIVES” (Hoffmann-La Roche Inc., priority 2020, published 2023) can be followed below.

Where a name gives a salt, the structure may show the parent alone. Read-outs that look alike come from different tables or passages of the source.

One may read the IC90 as the concentration needed for an effect of 90%.

As for `C#CCNC(=O)c1c(C)cc(Nc2nccn3c(-c4cn(CC(F)F)nc4C(F)(F)F)cnc23)cc1F` [Example 37, 4-[[3-[1-(2,2-difluoroethyl)-3-(trifluoromethyl)pyrazol-4-yl]imidazo[1,2-a]pyrazin-8-yl]amino]-2-fluoro-6-methyl-N-prop-2-ynylbenzamide], the IC90 under setting [1] was determined as 0.239 µM.

In the case of `CCc1cc(Nc2nccn3c(-c4cn(COC)nc4C(F)F)cnc23)ccc1C(=O)N1CCN(C(=O)[C@@H](C)N)CC1` [Example 778, (R)-2-amino-1-(4-(4-((3-(3-(difluoromethyl)-1-(methoxymethyl)-1H-pyrazol-4-yl)imidazo[1,2-a]pyrazin-8-yl)amino)-2-ethylbenzoyl)piperazin-1-yl)propan-1-one], under setting [1], the IC90 is 1.03 µM.

For the compound `N[C@@H]1CC[C@H](C(=O)N2CCN(C(=O)c3ccc(Nc4nccn5c(-c6c[nH]nc6C(F)(F)F)cnc45)cc3Cl)CC2)C1` [Example 342, [4-[(1S,3R)-3-aminocyclopentanecarbonyl]piperazin-1-yl]-[2-chloro-4-[[3-[3-(trifluoromethyl)-1H-pyrazol-4-yl]imidazo[1,2-a]pyrazin-8-yl]amino]phenyl]methanone formate], the IC90 under setting [2] came out at 0.228 µM.

In the case of `Cc1cc(Nc2nccn3c(-c4c[nH]nc4C(F)(F)F)cnc23)cc(F)c1C(=O)N1CCNCC1` [Example 86, [2-fluoro-6-methyl-4-[[3-[3-(trifluoromethyl)-1H-pyrazol-4-yl]imidazo[1,2-a]pyrazin-8-yl]amino]phenyl]-piperazin-1-ylmethanone], under setting [1], the concentration for an effect of 90% (IC90) stood at 3.38 µM.

Turning to `N#CCn1cc(-c2cnc3c(Nc4ccc(C(=O)N5CCN(C(=O)N6CCC(N)CC6)CC5)c(Cl)c4)nccn23)c(C(F)(F)F)n1` [Example 178, 2-[4-[8-4-[4-(4-aminopiperidine-1-carbonyl)piperazine-1-carbonyl]-3-chloroanilino]imidazo[1,2-a]pyrazin-3-yl]-3-(trifluoromethyl) pyrazol-1-yl]acetonitrile formate], the IC90 under setting [3] is 0.161 µM.

On to `COCCNC(=O)c1ccc(Nc2nccn3c(-c4cn(CC#N)nc4C(F)(F)F)cnc23)cc1Cl` [Example 239, 2-chloro-4-[[3-[1-(cyanomethyl)-3-(trifluoromethyl)pyrazol-4-yl]imidazo[1,2-a]pyrazin-8-yl]amino]-N-(2-methoxyethyl) benzamide], for which, under setting [3], the concentration for an effect of 90% (IC90) amounted to 0.211 µM.

For the compound `CCc1cc(Nc2nccn3c(-c4cn(C)nc4C(F)(F)F)cnc23)ccc1C(=O)NCCNC(=O)[C@@H]1C[C@@](O)(CC)CN1` [Example 446, (2S,4S)-4-ethyl-N-[2-[[2-ethyl-4-[[3-[1-methyl-3-(trifluoromethyl)pyrazol-4-yl]imidazo[1,2-a]pyrazin-8-yl]amino]benzoyl]amino]ethyl]-4-hydroxypyrrolidine-2-carboxamide formate], under setting [2], the concentration for an effect of 90% (IC90) turned out to be 2.27 µM.

For `Cc1cc(Nc2nccn3c(-c4cn(CC#N)nc4C(F)(F)F)cnc23)cc(F)c1C(=O)N1CCN(C(=O)[C@@H]2C[C@@H](O)CN2)CC1` [Example 721, 2-(4-(8-((3-fluoro-4-(4-((2S,4R)-4-hydroxypyrrolidine-2-carbonyl)piperazine-1-carbonyl)-5-methylphenyl)amino)imidazo[1,2-a]pyrazin-3-yl)-3-(trifluoromethyl)-1H-pyrazol-1-yl) acetonitrile formate], the IC90 under setting [2] was 0.452 µM.

As for `CCc1cc(Nc2nccn3c(-c4cn(C(C)C#N)nc4C(F)(F)F)cnc23)ccc1C(=O)NCCOCCCN` (stereo not drawn) [Example 639, N-(2-(3-aminopropoxy)ethyl)-4-((3-(1-(1-cyanoethyl)-3-(trifluoromethyl)-1H-pyrazol-4-yl)imidazo[1,2-a]pyrazin-8-yl)amino)-2-ethylbenzamide formate], under setting [2], the IC90 was found to be 0.228 µM.

For `CCc1cc(Nc2nccn3c(-c4cn(CC#N)nc4C(F)(F)F)cnc23)ccc1C(=O)NCC(=O)N1CC[C@@H](N)C1` [Example 504, N-[2-[(3R)-3-aminopyrrolidin-1-yl]-2-oxo-ethyl]-4-[[3-[1-(cyanomethyl)-3-(trifluoromethyl)pyrazol-4-yl]imidazo[1,2-a]pyrazin-8-yl]amino]-2-ethyl-benzamide formate], the IC90 under setting [1] came out at 0.238 µM.

With `O=C(CC1CCNCC1)N1CCN(C(=O)c2ccc(Nc3nccn4c(-c5cn(CC(F)F)nc5C(F)(F)F)cnc34)cc2Cl)CC1` [Example 578, 1-(4-(2-chloro-4-((3-(1-(2,2-difluoroethyl)-3-(trifluoromethyl)-1H-pyrazol-4-yl)imidazo[1,2-a]pyrazin-8-yl)amino)benzoyl)piperazin-1-yl)-2-(piperidin-4-yl) ethan-1-one formate], the IC90 under setting [2] stood at 0.394 µM.

For the compound `O=C(N[C@@H]1CCN(C(=O)[C@@H]2C[C@@H](O)CN2)C1)c1ccc(Nc2nccn3c(-c4c[nH]nc4C(F)(F)F)cnc23)cc1Cl` [Example 308, 2-chloro-N-[(3R)-1-[(2S,4R)-4-hydroxypyrrolidine-2-carbonyl]pyrrolidine-3-yl]-4-[[3-[3-(trifluoromethyl)-1H-pyrazol-4-yl]imidazo[1,2-a]pyrazin-8-yl]amino]benzamide], the IC90 under setting [1] stood at 0.525 µM.

For the compound `CCc1cc(Nc2nccn3c(-c4c[nH]nc4C(F)(F)F)cnc23)ccc1C(=O)NCCOC[C@@H](C)N` [Example 204, N-[2-[(2R)-2-aminopropoxy]ethyl]-2-ethyl-4-[[3-[3-(trifluoromethyl)-1H-pyrazol-4-yl]imidazo[1,2-a]pyrazin-8-yl]amino]benzamide], the IC90 under setting [1] was determined as 0.256 µM.

As for `CCc1cc(Nc2nccn3c(-c4cn(C)nc4C(F)F)cnc23)ccc1C(=O)NCCOCCN` [Example 347, N-[2-(2-aminoethoxy)ethyl]-4-[[3-[3-(difluoromethyl)-1-methylpyrazol-4-yl]imidazo[1,2-a]pyrazin-8-yl]amino]-2-ethylbenzamide], under setting [1], the concentration for an effect of 90% (IC90) worked out at 1.67 µM.

Consider `C=CCn1cc(-c2cnc3c(Nc4cc(C)c(C(=O)N5CCN(C(=O)[C@H]6CC[C@H](O)N6)CC5)c(F)c4)nccn23)c(C(F)(F)F)n1` [Example 629, (4-(4-((3-(1-allyl-3-(trifluoromethyl)-1H-pyrazol-4-yl)imidazo[1,2-a]pyrazin-8-yl)amino)-2-fluoro-6-methylbenzoyl)piperazin-1-yl)((2R,5S)-5-hydroxypyrrolidin-2-yl)methanone], for which the IC90 under setting [1] was found to be 0.198 µM.

Take `COCCn1cc(-c2cnc3c(Nc4ccc(C(=O)N5CCN(C(=O)N[C@H]6CCNC6)CC5)c(Cl)c4)nccn23)c(C(F)(F)F)n1` [Example 293, 4-[2-chloro-4-[[3-[1-(2-methoxyethyl)-3-(trifluoromethyl)pyrazol-4-yl]imidazo[1,2-a]pyrazin-8-yl]amino]benzoyl]-N-[(3S)-pyrrolidin-3-yl]piperazine-1-carboxamide formate]: the 90% effect concentration (IC90) under setting [2] came to 0.429 µM.

Consider `NCCNC(=O)NCCNC(=O)c1ccc(Nc2nccn3c(-c4c[nH]nc4C(F)(F)F)cnc23)cc1Cl` [Example 222, N-[2-(2-aminoethylcarbamoylamino)ethyl]-2-chloro-4-[[3-[3-(trifluoromethyl)-1H-pyrazol-4-yl]imidazo[1,2-a]pyrazin-8-yl]amino]benzamide formate], for which the IC90 under setting [2] is 1.09 µM.

For `CCc1cc(Nc2nccn3c(-c4cn(CCOC(F)(F)F)nc4C(F)(F)F)cnc23)ccc1C(=O)NCCOCCN` [Example 622, N-(2-(2-aminoethoxy)ethyl)-2-ethyl-4-((3-(1-(2-(trifluoromethoxy)ethyl)-3-(trifluoromethyl)-1H-pyrazol-4-yl)imidazo[1,2-a]pyrazin-8-yl)amino)benzamide], the IC90 under setting [1] came to 0.148 µM.
